This test has as its system lymphocytes. Briefly: Mixed Lymphocyte Reaction (MLR) II (Example B). It counts as cell-based. The settings on record: concentration of compound required to inhibit the proliferation of lymphocytes by 50%, cells from two responding donors, 96 hours incubation, ³H-thymidine for the final 24 hours, read-out: IC₅₀. As to the method: Mixed Lymphoctye Reaction (MLR) II
The MLR test was performed in 96-well microtitre plates with each well containing 3 x 10⁵ cells from each of two responding donors in a final volume of 0.2ml RPMI 1640 medium supplemented with 10% human serum, L-glutamine and penicillin/streptomycin. The compound under test was dissolved at 10mg/ml in ethanol and further diluted in RPMI 1640. The cells were incubated at 37 °C in a humidified atmosphere of 5% carbon dioxide for 96 hours. ³H-thymidine (0.5uCi) was added for the final 24 hours of the incubation to provide a measure of proliferation.
A selection of compounds were tested according to Example B. The concentration of compound required to inhibit the proliferation of lymphocytes by 50% was measured, and the results were as follows: […]
Regarding `C=CCC1C=C(C)CC(C)CC(OC)C2OC(O)(C(=O)C(=O)N3CCCCC3C(=O)OC(C(C)=CC3CCC(OC)C(OC)C3)C(C)C(OC)CC1=O)C(C)CC2OC` (stereo not drawn) [Example 1, 17-Allyl-1-hydroxy-12-[2-(3,4-dimethoxycyclohexyl)-1-methylvinyl]-14,23,25-trimethoxy-13,19,21,27-tetramethyl-11,28-dioxa-4-azatricyclo[22.3.1.0^4,9]octacos-18-ene-2,3,10,16-tetraone.], the IC50 is < 1000 nM. The result for `C=CCC1C=C(C)CC(C)CC(OC)C2OC(O)(C(=O)C(=O)N3CCCCC3C(=O)OC(C(C)=CC3CCC(OC)C(OC)C3)C(C)C(O)CC1=O)C(C)CC2OC` (stereo not drawn) [Example 2, 17-Allyl-1,14-dihydroxy-12-[2-(3,4-dimethoxycyclohexyl) -1-methylvinyl]-23,25-dimethoxy-13,19,21,27-tetramethyl-11, 28-dioxa-4-azatricyclo[22.3.1.0^4,9]octacos-18-ene-2,3,10, 16-tetraone] reads < 1000 nM. With `C=CCC1C=C(C)CC(C)CC(OC)C2OC(O)(C(C)CC2OC)C(O)C(=O)N2CCCCC2C(=O)OC(C(C)=CC2CCC(O)C(OC)C2)C(C)C(O)CC1=O` (stereo not drawn) [Example 5, 17-Allyl-1,2,14-trihydroxy-12-[2-(4-hydroxy-3-methoxycyclohexyl)-1-methylvinyl]-23,25-dimethoxy-13,19,21,27-tetra methyl-11,28-dioxa-4-azatricyclo[22.3.1.0^4,9]octacos-18-ene-3,10,16-trione], the IC50 was < 1000 nM. The result for `C=CCC1C=C(C)CC(C)CC(OC)C2OC(O)(C(C)CC2OC)C(O)C(=O)N2CCCCC2C(=O)OC(C(C)=CC2CCC(O)C(OC)C2)C(C)C(O)CC1O` (stereo not drawn) [Example 6, 17-Allyl-1,2,14,16-tetrahydroxy-12-[2-(4-hydroxy-3-methoxycyclohexyl)-1-methylvinyl]-23,25-dimethoxy-13,19,21, 27-tetramethyl-11,28-dioxa-4-azatricyclo[22.3.1.0^4,9] octacos-18-ene-3,10-dione] reads < 1000 nM; that for `CCCC1C=C(C)CC(C)CC(OC)C2OC(O)(C(=O)C(=O)N3CCCCC3C(=O)OC(C(C)=CC3CCC(O)C(OC)C3)C(C)CCC1=O)C(C)CC2OC` (stereo not drawn) [Example 12, 17-Propyl-1-hydroxy-12-[2-(4-hydroxy-3-methoxycyclohexyl)-1-methylvinyl]-23,25-dimethoxy-13,19,21,27-tetra methyl-11,28-dioxa-4-azatricyclo[22.3.1.0^4,9]octacos-18-ene-2,3,10,16-tetraone], < 1000 nM. Regarding `C=CCC1C=C(C)CC(C)CC(OC)C2OC(O)(C(C)CC2OC)C(O)C(=O)N2CCCCC2C(=O)OC(C(C)=CC2CCC(O)C(OC)C2)C(C)CCC1=O` (stereo not drawn) [Example 15, 17-Allyl-1,2-dihydroxy-12-[2-(4-hydroxy-3-methoxy-cyclohexyl)-1-methylvinyl]-23,25-dimethoxy-13,19,21,27-tetra methyl-11,28-dioxa-4-azatricyclo-[22.3.1.0^4,9]octacos-18-ene-3,10,16-trione], the IC50 is < 1000 nM.

For the compound `C=CCC1C=C(C)CC(C)CC(OC)C2OC(O)(C(=O)C(=O)N3CCCCC3C(=O)OC(C(C)=CC3CCC(O)C(OC)C3)C(C)CCC1=O)C(C)CC2OC` (stereo not drawn) [Example 17, 17-Allyl-l-hydroxy-12-[2-(4-hydroxy-3-methoxycyclohexyl)-1-methylvinyl]-23,25-dimethoxy-13,19,21,27-tetramethyl-11,28-dioxa-4-azatricyclo[22.3.1.0^4,9]octacos-18-ene-2,3,10,16-tetraone], the IC50 is < 1000 nM.

As for `CCCC1C=C(C)CC(C)CC(OC)C2OC(O)(C(=O)C(=O)N3CCCCC3C(=O)OC(C(C)=CC3CCC(=O)C(OC)C3)C(C)CCC1=O)C(C)CC2OC` (stereo not drawn) [Example 18, 17-Propyl-1-hydroxy-12-[2-(3-methoxy-4-oxocyclohexyl)-1-methylvinyl]-23,25-dimethoxy-13,19,21,27-tetramethyl-11,28-dioxa-4-azatricyclo[22.3.1.0^4,9]octacos-18-ene-2,3,10,16-tetraone.], the IC50 is < 1000 nM.

Take `COC1CC(C=C(C)C2OC(=O)C3CCCCN3C(=O)C(=O)C3(O)OC(C(OC)CC(C)CC(C)=Cc4ccn(CCO)c4CC(O)C2C)C(OC)CC3C)CCC1O` (stereo not drawn) [Example 22, 1,14-Dihydroxy-12-[2-(4-hydroxy-3-methoxycyclohexyl)-1-methylvinyl]-26,28-dimethoxy-17-(2-hydroxyethyl)-13,22,24,30-tetramethyl-11,31-dioxa-4,17-diazatetracyclo[25.3.1.0.^4,9 .0^16,20]hentriaconta-16(20),18,21-triene-2,3,10-trione.]: the IC50 was < 1000 nM.

Take `C=CCC1C=C(C)CC(C)CC(OC)C2OC(O)(C(=O)C(=O)N3CCCCC3C(=O)OC(C(C)=CC3CCC(OCOCCOC)C(OC)C3)C(C)C(O)CC1=O)C(C)CC2OC` (stereo not drawn) [Example 27]: the IC50 was < 1000 nM. Under `C=CCC1C=C(C)CC(C)CC(OC)C2OC(O)(C(C)CC2OC)C2(CO2)C(=O)N2CCCCC2C(=O)OC(C(C)=CC2CCC(O)C(OC)C2)C(C)C(O)CC1=O` (stereo not drawn) [Example 30, 17-Allyl-1,14-dihydroxy-12-[2-(4-hydroxy-3-methoxycyclohexyl)-1-methylvinyl]-23,25-dimethoxy-13,19,21, 27-tetramethyl-11,28-dioxa-4-aza-spiro[tricyclo [22.3.1.0^4,9]octacos-18-ene-2,2'-oxirane]-3,10,16-trione.] stands < 1000 nM; under `COC1CC(C=C(C)C2OC(=O)C3CCCCN3C(=O)C(=O)C3(O)OC(C(OC)CC(C)CC(C)=CC4=C(CC(O)C2C)OC(C[Se]c2ccccc2)C4)C(OC)CC3C)CCC1O` (stereo not drawn) [Example 32, 1,14-Dihydroxy-12-[2-(4-hydroxy-3-methoxycyclohexyl)-1-methylvinyl]-26,28-dimethoxy-18-[(phenylseleno)methyl]-13, 22,24,30-tetramethyl-11,17,31-trioxa-4-azatetracyclo[25.3.1. 0.^4,90.^16,20]hentriaconta-16(20),21-diene-2,3,10-trione.], < 1000 nM.

The values are drawn from patent EP0346427B1, “MACROCYCLIC COMPOUNDS” (FISONS plc, priority 1987, dated 1989).
